Measurements published in patent US20220387433A1, “TYPE V PHOSPHODIESTERASE INHIBITOR COMPOSITIONS, METHODS OF MAKING THEM AND METHODS OF USING THEM IN PREVENTING OR TREATING ELEVATED PULMONARY VASCULAR PRESSURE OR PULMONARY HEMORRHAGES” (American Regent, Inc., priority 2019, published 2022).

Test system: horses
Assay: Target Animal Safety (TAS) study / toxicity of formulations in horses
Format: in vivo
Settings: in vivo
Excerpt: The drug product vehicle contains about 35-45 wt % alcohol, 46 wt % propylene glycol and 10 wt % WFI. […] Test doses (in horses) with the vehicle confirmed that the dose toxicity was due to the vehicle. More specifically, propylene glycol was believed to be the cause of toxicity.

How did the Toxicity to horses turn out when CNC[C@H](O)[C@@H](O)[C@H](O)[C@H](O)CO [meglumine, 1-Deoxy-1-methylaminosorbitol] was run?
The Toxicity to horses was “non-toxic”.
